Reference: PubChem BioAssay AID330 (DTP/NCI, 2004)
“And” between values parts separate entries of the source, which are not always exact repeats. Equal values may be shown once. Inconclusive results and toxic doses are left out.

Test system: P388 leukemia ip, CD2F1 mice, survival T/C
Test: NCI In Vivo Anticancer Drug Screen. Data for tumor model P388 Leukemia (intraperitoneal) in CD2F1 (CDF1) mice
Conditions: endpoint: median survival time, higher = longer survival
Method in brief: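 Mice carrying the transplanted tumor received test compound or vehicle. Survival was recorded in each group, and the value is the treated-group measurement divided by that of the vehicle-treated control group.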

[1] = dose: 50.0 mg/kg/injection, schedule: Q01DX001 (ip), vehicle: saline with Tween-80
[2] = dose: 12.5 mg/kg/injection, schedule: Q01DX005 (ip), vehicle: Klucel (hydroxypropylcellulose) (HPC)
[3] = dose: 25.0 mg/kg/injection, schedule: Q01DX005 (ip), vehicle: Klucel (hydroxypropylcellulose) (HPC)
[4] = dose: 50.0 mg/kg/injection, schedule: Q01DX005 (ip), vehicle: Klucel (hydroxypropylcellulose) (HPC)
[5] = dose: 60.0 mg/kg/injection, schedule: Q01DX005 (ip), vehicle: saline
[6] = dose: 120.0 mg/kg/injection, schedule: Q01DX005 (ip), vehicle: saline
[7] = dose: 240.0 mg/kg/injection, schedule: Q01DX005 (ip), vehicle: saline
[8] = dose: 50.0 mg/kg/injection, schedule: Q01DX005 (ip), vehicle: saline with Tween-80
[9] = dose: 100.0 mg/kg/injection, schedule: Q01DX005 (ip), vehicle: saline with Tween-80
[10] = dose: 50.0 mg/kg/injection, schedule: Q01DX005 (ip), vehicle: saline
[11] = dose: 100.0 mg/kg/injection, schedule: Q01DX005 (ip), vehicle: saline
[12] = dose: 200.0 mg/kg/injection, schedule: Q01DX005 (ip), vehicle: saline
[13] = dose: 50.0 mg/kg/injection, schedule: Q01DX009 (ip), vehicle: saline with Tween-80
[14] = dose: 100.0 mg/kg/injection, schedule: Q01DX009 (ip), vehicle: saline with Tween-80
[15] = dose: 200.0 mg/kg/injection, schedule: Q01DX009 (ip), vehicle: saline with Tween-80
[16] = dose: 50.0 mg/kg/injection, schedule: Q01DX009 (ip), vehicle: Klucel (hydroxypropylcellulose) (HPC)
[17] = dose: 100.0 mg/kg/injection, schedule: Q01DX009 (ip), vehicle: Klucel (hydroxypropylcellulose) (HPC)
[18] = dose: 200.0 mg/kg/injection, schedule: Q01DX009 (ip), vehicle: Klucel (hydroxypropylcellulose) (HPC)

C=C1C(=O)OC2CCC3OC(C)(C)OC3C12 (centres undefined)
T/C (dose: 12.5 mg/kg/injection, schedule: Q01DX009 (ip), vehicle: DMSO): 95 % of control | T/C (dose: 25.0 mg/kg/injection, schedule: Q01DX009 (ip), vehicle: DMSO): 122 % of control | T/C (dose: 50.0 mg/kg/injection, schedule: Q01DX009 (ip), vehicle: DMSO): 101 % of control | T/C (dose: 100.0 mg/kg/injection, schedule: Q01DX009 (ip), vehicle: DMSO): 110 % of control | T/C (dose: 200.0 mg/kg/injection, schedule: Q01DX009 (ip), vehicle: DMSO): 113 % of control

O=C(N/N=C/c1cc(Br)cc(Br)c1[O-])c1ccccc1.O=C(N/N=C/c1cc(Br)cc(Br)c1[O-])c1ccccc1.[Cu+2]
T/C (dose: 12.5 mg/kg/injection, schedule: Q01DX001 (ip), vehicle: saline with Tween-80): 91 % of control | T/C (dose: 25.0 mg/kg/injection, schedule: Q01DX001 (ip), vehicle: saline with Tween-80): 89 % of control | T/C [1]: 100 % of control

NC(N)=N/N=C/c1ccc(Cl)cc1Cl
T/C (dose: 25.0 mg/kg/injection, schedule: Q01DX009 (ip), vehicle: saline): 104 % of control | T/C (dose: 50.0 mg/kg/injection, schedule: Q01DX009 (ip), vehicle: saline): 106 % of control

CCN(CC)c1ccc2cc(C(=O)NC(=O)Oc3ccccc3)c(=O)oc2c1
T/C (dose: 100.0 mg/kg/injection, schedule: Q04DX002 (ip), vehicle: saline with Tween-80): 92 % of control | T/C (dose: 200.0 mg/kg/injection, schedule: Q04DX002 (ip), vehicle: saline with Tween-80): 89 % of control | T/C (dose: 400.0 mg/kg/injection, schedule: Q04DX002 (ip), vehicle: saline with Tween-80): 87 % of control

O=C1/C(=C/c2cccc(F)c2)SC(=S)N1C1CC1
T/C (dose: 6.25 mg/kg/injection, schedule: Q01DX005 (ip), vehicle: Klucel (hydroxypropylcellulose) (HPC)): 96 % of control | T/C [2]: 96 % of control | T/C [3]: 99 % of control | T/C [4]: 94 % of control | T/C (dose: 100.0 mg/kg/injection, schedule: Q01DX005 (ip), vehicle: Klucel (hydroxypropylcellulose) (HPC)): 92 % of control | T/C (dose: 200.0 mg/kg/injection, schedule: Q01DX005 (ip), vehicle: Klucel (hydroxypropylcellulose) (HPC)): 87 % of control

CCN(CC)CCOC(=O)/C=C/c1ccccc1
T/C [5]: 106 % of control | T/C [6]: 107 % of control | T/C [7]: 102 % of control

Cc1c(N=Nc2ccccc2[N+](=O)[O-])c(-c2ccccc2)nn1C(N)=S
T/C (dose: 100.0 mg/kg/injection, schedule: Q01DX001 (ip), vehicle: Klucel (hydroxypropylcellulose) (HPC)): 114 % of control | T/C (dose: 200.0 mg/kg/injection, schedule: Q01DX001 (ip), vehicle: Klucel (hydroxypropylcellulose) (HPC)): 114 % of control | T/C (dose: 400.0 mg/kg/injection, schedule: Q01DX001 (ip), vehicle: Klucel (hydroxypropylcellulose) (HPC)): 108 % of control

COc1ccc(Cc2nnc(NN)[nH]c2=O)cc1OC
T/C (dose: 60.0 mg/kg/injection, schedule: Q01DX005 (ip), vehicle: saline with Tween-80): 101 % of control | T/C (dose: 120.0 mg/kg/injection, schedule: Q01DX005 (ip), vehicle: saline with Tween-80): 97 % of control

Clc1ccccc1-c1nnc(-c2cccc(-c3nnc(-c4ccccc4Cl)s3)c2)s1
T/C [8]: 91 % of control | T/C [9]: 89 % of control | T/C (dose: 200.0 mg/kg/injection, schedule: Q01DX005 (ip), vehicle: saline with Tween-80): 90 % of control

CCCCNC(=O)C(C)O (centres undefined)
T/C [10]: 101 % of control | T/C [11]: 99 % of control | T/C [12]: 92 % of control

N#CCNC=O
T/C [5]: 98 % of control | T/C [6]: 103 % of control | T/C [7]: 100 % of control

Cc1ccc2c(c1)NC(c1cccc(N=Cc3cc(Cl)cc(Cl)c3O)c1)c1cccn1-2 (centres undefined)
T/C [13]: 86 % of control | T/C [14]: 91 % of control | T/C [15]: 96 % of control

COC(=O)c1[nH]cnc1O
T/C (dose: 50.0 mg/kg/injection, schedule: Q01DX005 (ip), vehicle: water): 103 % of control | T/C (dose: 100.0 mg/kg/injection, schedule: Q01DX005 (ip), vehicle: water): 113 % of control | T/C (dose: 200.0 mg/kg/injection, schedule: Q01DX005 (ip), vehicle: water): 103 % of control

CCCCNC(=S)NC1C2CC3CC(C2)CC1C3 (centres undefined)
T/C [16]: 97 % of control | T/C [17]: 98 % of control | T/C [18]: 101 % of control

CC1=CC(C/C(C)=C/COc2ccc3ccc(=O)oc3c2)OC1=O (centres undefined)
T/C [2]: 87 % of control | T/C [3]: 90 % of control | T/C [4]: 97 % of control

Nc1cnccc1Nc1ccncc1
T/C [1]: 95 % of control | T/C (dose: 100.0 mg/kg/injection, schedule: Q01DX001 (ip), vehicle: saline with Tween-80): 100 % of control

O=c1[nH]c(=O)n(C2CC(O)C(CO)C2)cc1F (centres undefined)
T/C (dose: 200.0 mg/kg/injection, schedule: Q01DX005 (ip), vehicle: saline + Tween-80 + alcohol): 100 % of control | T/C (dose: 400.0 mg/kg/injection, schedule: Q01DX005 (ip), vehicle: saline + Tween-80 + alcohol): 120 % of control

Nc1cc(N)c([N+](=O)[O-])cc1[N+](=O)[O-]
T/C (dose: 100.0 mg/kg/injection, schedule: Q04DX003 (ip), vehicle: saline with Tween-80): 91 % of control | T/C (dose: 200.0 mg/kg/injection, schedule: Q04DX003 (ip), vehicle: saline with Tween-80): 100 % of control | T/C (dose: 400.0 mg/kg/injection, schedule: Q04DX003 (ip), vehicle: saline with Tween-80): 87 % of control

CCCCCCCCCCC(=O)C(=O)c1ccc(O)cc1O
T/C [16]: 111 % of control | T/C [17]: 112 % of control | T/C [18]: 113 % of control

COC[C@H]1OC(=O)c2coc3c2[C@@]1(C)C1=C(C3=O)[C@@H]2CCC(=O)[C@@]2(C)C[C@H]1OC(C)=O
T/C (dose: 0.31 mg/kg/injection, schedule: Q01DX009 (ip), vehicle: saline with Tween-80): 115 % of control | T/C (dose: 2.5 mg/kg/injection, schedule: Q01DX009 (ip), vehicle: saline with Tween-80): 99 % of control and 90 % of control

O=S1(=O)O[C@H]2CCCC[C@H]2O1
T/C (dose: 1.75 mg/kg/injection, schedule: Q01DX009 (ip), vehicle: Klucel (hydroxypropylcellulose) (HPC)): 100 % of control | T/C (dose: 3.5 mg/kg/injection, schedule: Q01DX009 (ip), vehicle: Klucel (hydroxypropylcellulose) (HPC)): 98 % of control | T/C (dose: 7.0 mg/kg/injection, schedule: Q01DX009 (ip), vehicle: Klucel (hydroxypropylcellulose) (HPC)): 101 % of control | T/C (dose: 14.0 mg/kg/injection, schedule: Q01DX009 (ip), vehicle: Klucel (hydroxypropylcellulose) (HPC)): 98 % of control

Cc1ccc(NCCN(C)C)c2c(=O)c3c(O)cccc3sc12
T/C (dose: 50.0 mg/kg/injection, schedule: Q01DX009 (ip), vehicle: suspension in saline): 166 % of control

O=C(c1ccccc1C(=O)N1CCCO1)N1CCCO1
T/C (dose: 60.0 mg/kg/injection, schedule: Q01DX005 (ip), vehicle: Klucel (hydroxypropylcellulose) (HPC)): 93 % of control | T/C (dose: 120.0 mg/kg/injection, schedule: Q01DX005 (ip), vehicle: Klucel (hydroxypropylcellulose) (HPC)): 100 % of control | T/C (dose: 240.0 mg/kg/injection, schedule: Q01DX005 (ip), vehicle: Klucel (hydroxypropylcellulose) (HPC)): 100 % of control

O=C(NC(=O)C(F)(F)F)Nc1cccc(C(F)(F)F)c1
T/C [13]: 114 % of control | T/C [14]: 94 % of control | T/C [15]: 94 % of control

Nc1[nH][nH]c(=O)c1N
T/C [10]: 101 % of control | T/C [11]: 101 % of control | T/C [12]: 107 % of control

CCOC(=O)NC(C)(C)CN(C(=O)OCC)C(C)C
T/C (dose: 100.0 mg/kg/injection, schedule: Q04DX003 (ip), vehicle: other): 95 % of control | T/C (dose: 200.0 mg/kg/injection, schedule: Q04DX003 (ip), vehicle: other): 100 % of control | T/C (dose: 400.0 mg/kg/injection, schedule: Q04DX003 (ip), vehicle: other): 95 % of control

CCN(CC)CCSCCCN=c1c2ccc(Cl)cc2n(O)c2ccc(OC)nc12
T/C (dose: 50.0 mg/kg/injection, schedule: Q01DX009 (ip), vehicle: saline + alcohol): 115 % of control | T/C (dose: 100.0 mg/kg/injection, schedule: Q01DX009 (ip), vehicle: saline + alcohol): 112 % of control

NC(=O)C1=C2NC(=O)c3ccccc3C2C2=C1CCCC2 (centres undefined)
T/C [2]: 90 % of control | T/C [3]: 92 % of control | T/C [4]: 98 % of control and 105 % of control

CN(Cc1cccc2ccccc12)Cc1cccc2ccccc12
T/C [8]: 86 % of control | T/C [9]: 89 % of control
